Measured values as given in patent publication US9814727B2, “Piperazine phenothiazine derivatives for treating spasticity” (UNIVERSITE D'AIX-MARSEILLE, priority 2014, dated 2017).

Key:
[1] = system: Hoffmann reflex (H-reflex); assay: Assessment of spasticity following spinal cord injury (H reflex); format: in vivo, rat; settings: 10 μg/kg i.v.
Experimental: Thoracic spinal section in rats was used as a model of SCI. Adult female Wistar Rats (225/250 g Charles River) were anaesthetized intraperitoneally with 50 mg/kg ketamine (Imalgen®, Merial, Duluth, Ga., USA) and 0.25 mg/kg Medetomidine (Domitor®, Janssen Pharmaceutica, Beerse, Belgium). The antibiotic Amoxycyline (Duphamox LA®, Pfizer, 150 mg/kg) was injected subcutaneously before the surgery. The skin was cut longitudinally over T8-T10 vertebra and a local anesthetic (2% Procaine hydrochloride, Pharmy H, Saint-Germain-en-Laye, France) was injected intramuscularly before cuting the paravertebral muscles. A laminectomy was performed at vertebral segment T9. The spinal cord was transected with microscissors at the level of the T8 spinal segment. Finally, paravertebral muscles and skin were sutured and rats were treated with buprenorphine for analgesia (1 injection before awakening from anaesthesia and 4 more injections over the next 48 h period). […]
At day 29 post lesion, the H reflex in the rats under ketamine anesthesia (100 mg/kg, i.p.) were measured using a pair of stainless steel needle electrodes transcutaneously inserted into the vicinity of the tibial nerve stimulation. […]
The H reflex was measured three times at frequencies of 0.2 Hz 1 Hz, 2 Hz and 5 Hz to have their baseline values. […] The H reflex was measured each 20 minutes, five times at frequencies of 0.2 Hz 1 Hz, 2 Hz and 5 Hz

KCC2 [2] = assay: Western blot of KCC2 in total cell lysate of NSC-34 KCC2 cells; format: cell-based; settings: 10 μM, 30 min of cell treatment, NSC-34 KCC2 whole cell lysate
Experimental: NSC-34 wild type and KCC2 were cultured in DMEM (Life technologies, Carlsbad, Calif., USA) supplemented with 10% FBS (Life technologies), 50 units/mL penicillin, and 50 µg/mL streptomycin (Life technologies).
Wild-type and KCC2-expressing HEK293 cells or NSC-34 were harvested and homogenised in lysis buffer (PBS containing 1% Igepal CA-630, 0.1% SDS, 10 mM sodium pyrophosphate, 10 mM NaF, 10 mM NaVO4, 10 mM iodoacetamide and cocktail protease inhibitors and centrifugated at 18000 g for 30 minutes at 4° C. Protein concentration in supernatants was determined using DC protein assay (Bio-rad). Same amounts of total proteins were separated in 6% or 7% SDS PAGE and transferred onto PVDF membrane. Once blocked in Tris Buffer Saline 0.05% Tween 5% non-fat dry milk, membranes were probes over night at 4° C. with KCC2 antibody (1/1000 dilution, Merck-Millipore, Billerica, Mass., USA), or anti-phospho-serine940 KCC2 (1/1000 dilution, PhosphoSolutions) or anti-Actin antibody (1/500 dilution, Sigma Aldrich). Anti-rabbit secondary antibody HRP conjugated was used for detection in chemiluminescent system (Thermo Scientific, Waltham, Mass., USA). Signal intensity was measured with the image analysis software Image lab (Bio-Rad, Hercules, Calif., USA). […]

KCC2 [3] = assay: FluxOR fluorescence based thallium (Tl+) influx assay on KCC2-expressing HEK293 cells; format: cell-based; settings: HEK KCC2 compared to WT HEK cells, non-cytotoxic dose range
Experimental: Wild-type or KCC2-expressing Human Embryonic Kidney (HEK) 293 cells (provided by Prof. Eric Delpire Department of Anesthesiology, Vanderbilt University Medical Center, Nashville, Tenn.) were grown up to 80-90% confluence in DMEM/Ham's F-12 (1:1) (Life technologies, Carlsbad, Calif., USA) supplemented with 10% FBS (Life technologies), 50 units/mL penicillin, and 50 µg/mL streptomycin (Life technologies). KCC2-expressing clones were under puromycin selection (20 μg/ml, Life technologies).
The FluxOR™ potassium ion channel assay (Life Technologies Carlsbad, Calif., USA) was performed as outlined in the product information sheet and an earlier published study (Delpire et al., 2009, Proc. Natl. Acad. Sci. USA, 106, 5383-88) to assess KCC2 activity, and adapted to semi-automated high throughput screening. The experiment was performed in the presence of ouabain 200 μM and bumetanide 10 μM in all buffers to block the Na^+/K^+ pump and NKCC1 cotransporters, respectively. Briefly, cells in suspension were incubated in the loading buffer containing the dye at room temperature for 90 min (1/2000 dilution of FluxOR reagent) at the density of 100.000 cells/75 μl, then centrifugated and resuspended in Assay buffer at the same cell density. A number of 100.000 cells (75 μl) were manually handled in each well to the 96-wells black-walled, μclear-bottom plates (Greiner Bio-One, Monroe, N.C., USA) and 5 μl of chemical compounds 1-8 at different concentrations in PBS 1% DMSO (5, 30 and 50 μM) were added to the plates using the Biomek® NX Laboratory automation workstation (Beckman Coulter, Villepinte, France). After 15 minutes incubation, baseline fluorescent signal was measured with the Polarstar omega microplate reader (490 nm excitation and 520 nm emission, BMG Labtech). Then 20 μL per well of 5× thallium stimulus buffer (final concentrations: Tl^+: 2 mM, K^+: 10 mM) was injected and fluorescent signal was read 30 minutes later.
For each plate, 2 columns were dedicated to controls (cell density range from 0.25 to 1.10^5 cells; loading buffer as blank; untreated or treated with NEM (33 μM, for 15 min) wild-type and KCC2-expressing HEK293 cells).
Baseline fluorescent value was subtracted from the fluorescent value measured 30 min after stimulus buffer injection for each well, and this difference was normalized to the number of cells. […] Values converted to percentages such that the maximum of ratio is 100%.

CN1CCN(CCCN2c3ccccc3Sc3ccc(Cl)cc32)CC1 [compound 2, 2-chloro-10-[3-(4-methyl-1-piperazinyl)propyl]-10H-phenothiazine]
decrease of the H reflex ([1]; 80 min after injection, 1, 2 and 5 Hz, adult rats after SCI): ~30%
effect on spasticity after spinal cord injury ([1]; 80 minutes, adult rats 4 weeks after SCI): reduces spasticity
phosphorylated KCC2 on serine 940 (KCC2 [2]): increased
total KCC2 protein level (monomers+oligomers) (KCC2 [2]): increased
specific activation of KCC2 across a dose range (KCC2 [3]): activate specifically KCC2 in a dose dependant manner
